Test systems include ACHN renal; SK-OV-3 ovarian; DU-145 prostate; SN12C renal; SR leukemia; NCI-H23 lung; OVCAR-8 ovarian; NCI/ADR-RES ovarian; SF-539 CNS; UACC-257 melanoma; SNB-75 CNS; SK-MEL-2 melanoma; MOLT-4 leukemia; EKVX NSCLC; SW-620 colon; M14 melanoma.
Assay in all cases: NCI tumour cell line growth inhibition, 48 h

The record followed here is PubChem BioAssay (NCI).

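Each compound was tested at five concentrations against cells in 96-well plates for 48 hours. At the TGI there is no net growth.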 Bounds are passed on as bounds.

`Cc1ccc2c(c1)C(=O)c1nc(C)ccc1C2=O`: the TGI was over 100 µM in the experiment with ACHN renal; over 100 µM in the experiment on SK-OV-3 ovarian; over 100 µM in the experiment with DU-145 prostate; 87.9 µM with SN12C renal; over 100 µM in the experiment on SR leukemia; 56.7 µM in the experiment with NCI-H23 lung. Further, the TGI was 97.5 µM in the experiment with OVCAR-8 ovarian; 59.1 µM with NCI/ADR-RES ovarian; over 100 µM in the experiment with SF-539 CNS; 45.2 µM in the experiment with UACC-257 melanoma; over 100 µM with SNB-75 CNS; over 100 µM in the experiment with SK-MEL-2 melanoma. The TGI with MOLT-4 leukemia, in the experiment on EKVX NSCLC, in the experiment with SW-620 colon and with M14 melanoma was over 100 µM each time.
Regarding `CO/N=C(/C)c1cccc(Nc2nc3ccccc3c3[nH]c4ccccc4c23)c1`, the TGI was 12.8 µM with ACHN renal; 40.3 µM in the experiment with SK-OV-3 ovarian; 25 µM in the experiment on DU-145 prostate; 25 µM in the experiment with SN12C renal; over 100 µM in the experiment on SR leukemia; 23.1 µM in the experiment on NCI-H23 lung. Also, the TGI with OVCAR-8 ovarian stood at 20.9 µM; in the experiment with NCI/ADR-RES ovarian, 25.1 µM; in the experiment with SF-539 CNS, 28.1 µM; in the experiment on UACC-257 melanoma, 26.5 µM; with SNB-75 CNS, 18.6 µM; in the experiment with SK-MEL-2 melanoma, 23.5 µM. Moreover, the TGI in the experiment with MOLT-4 leukemia worked out at 27.2 µM; with SW-620 colon, 27.5 µM; in the experiment on M14 melanoma, 21.1 µM.
Consider `Cc1nc(CC#N)n[nH]1`, for which the TGI with ACHN renal, with SK-OV-3 ovarian, in the experiment on DU-145 prostate, in the experiment with SN12C renal, in the experiment on SR leukemia and in the experiment with NCI-H23 lung was over 100 µM in each case. Also, the TGI with OVCAR-8 ovarian, in the experiment with NCI/ADR-RES ovarian, in the experiment with SF-539 CNS, in the experiment with UACC-257 melanoma, with SNB-75 CNS and in the experiment on SK-MEL-2 melanoma was over 100 µM in each case. The TGI in the experiment on MOLT-4 leukemia, with EKVX NSCLC, in the experiment on SW-620 colon and with M14 melanoma was over 100 µM throughout.
With `COC(=O)C1Cc2cc3c(cc2C1=O)CCCC3` (centres undefined), the TGI in the experiment on ACHN renal, in the experiment with SK-OV-3 ovarian, with DU-145 prostate, in the experiment on SN12C renal, in the experiment with SR leukemia and in the experiment on NCI-H23 lung was over 100 µM in each case. In addition, the TGI with OVCAR-8 ovarian, in the experiment with NCI/ADR-RES ovarian, with SF-539 CNS, in the experiment on UACC-257 melanoma, in the experiment with SNB-75 CNS and in the experiment with SK-MEL-2 melanoma was over 100 µM in each case. Moreover, the TGI in the experiment on MOLT-4 leukemia, in the experiment on EKVX NSCLC, in the experiment on SW-620 colon and in the experiment with M14 melanoma was over 100 µM throughout.
With `O=C(c1nc2ccc([N+](=O)[O-])cc2[nH]c1=O)C(O)c1ccc2c(c1)OCO2` (centres undefined), the TGI in the experiment on ACHN renal, with SK-OV-3 ovarian, in the experiment with DU-145 prostate, in the experiment on SN12C renal, with SR leukemia and in the experiment with NCI-H23 lung was over 100 µM throughout. The TGI in the experiment with OVCAR-8 ovarian, in the experiment with NCI/ADR-RES ovarian, in the experiment with SF-539 CNS, with UACC-257 melanoma, in the experiment with SNB-75 CNS and with SK-MEL-2 melanoma was over 100 µM throughout. Moreover, the TGI in the experiment with MOLT-4 leukemia, in the experiment on EKVX NSCLC, with SW-620 colon and with M14 melanoma was over 100 µM each time.
For `NC(N)=NC(N)=Nc1ccc(S(=O)(=O)O)cc1`, the TGI with ACHN renal, with SK-OV-3 ovarian, with DU-145 prostate, in the experiment with SN12C renal, with SR leukemia and with NCI-H23 lung was over 100 µM in each case. Besides, the TGI in the experiment on OVCAR-8 ovarian, with NCI/ADR-RES ovarian, in the experiment with SF-539 CNS, with UACC-257 melanoma, with SNB-75 CNS and with SK-MEL-2 melanoma was over 100 µM each time. Also, the TGI in the experiment on EKVX NSCLC, with SW-620 colon and in the experiment on M14 melanoma was over 100 µM each time.
For the compound `Cc1cnc2sn(-c3ccc([N+](=O)[O-])cc3)c(=O)c2c1`, the TGI is over 100 µM with ACHN renal; 81.4 µM in the experiment with SK-OV-3 ovarian; over 100 µM with DU-145 prostate; over 100 µM in the experiment with SN12C renal; over 100 µM in the experiment with SR leukemia; over 100 µM with NCI-H23 lung. In addition, the TGI in the experiment on OVCAR-8 ovarian is over 100 µM; in the experiment on NCI/ADR-RES ovarian, over 100 µM; in the experiment with SNB-75 CNS it was 51.6 µM; in the experiment on SK-MEL-2 melanoma, over 100 µM; with MOLT-4 leukemia, over 100 µM; in the experiment on EKVX NSCLC it was over 100 µM. Besides, the TGI with SW-620 colon and in the experiment with M14 melanoma was over 100 µM in each case.
Take `CS(=O)(=O)OCCN(CCOS(C)(=O)=O)c1ccc(C=Nc2cccc(Cl)c2)cc1`: the TGI with ACHN renal is 0.651 µM; in the experiment with DU-145 prostate it was over 100 µM; in the experiment with SN12C renal, 27.8 µM; in the experiment on SR leukemia, 0.307 µM; in the experiment on NCI-H23 lung, 10.6 µM; in the experiment on OVCAR-8 ovarian, over 100 µM. Moreover, the TGI was 27.3 µM in the experiment on NCI/ADR-RES ovarian; 27.3 µM in the experiment with SF-539 CNS; 21.1 µM with UACC-257 melanoma; over 31.1 µM with SNB-75 CNS; 66.5 µM in the experiment with SK-MEL-2 melanoma; 1.31 µM in the experiment with MOLT-4 leukemia. For the same compound, the TGI in the experiment on EKVX NSCLC is 46.6 µM; in the experiment with SW-620 colon, over 100 µM; with M14 melanoma, 55.5 µM.
Turning to `O=C(O)C(O)C(O)C(=O)O` (centres undefined), the TGI in the experiment on ACHN renal, in the experiment on SK-OV-3 ovarian, in the experiment on DU-145 prostate, with SN12C renal, in the experiment with SR leukemia and with OVCAR-8 ovarian was over 100 µM each time. In addition, the TGI in the experiment with NCI/ADR-RES ovarian, in the experiment with SF-539 CNS, in the experiment on UACC-257 melanoma, with SNB-75 CNS, in the experiment with SK-MEL-2 melanoma and with MOLT-4 leukemia was over 100 µM throughout. Also, the TGI with EKVX NSCLC, in the experiment on SW-620 colon and with M14 melanoma was over 100 µM in each case.
In the case of `CC1(C)OC2[C@@H](CO[C@@]3([C@@H](O)CCO)OC(C)(C)O[C@@H]23)O1` (some centres undefined), the TGI in the experiment on ACHN renal, in the experiment on DU-145 prostate, in the experiment with SN12C renal, with SR leukemia, in the experiment with NCI-H23 lung and with OVCAR-8 ovarian was over 100 µM in each case. Moreover, the TGI with NCI/ADR-RES ovarian, with SF-539 CNS, in the experiment with UACC-257 melanoma, in the experiment on SNB-75 CNS, in the experiment with SK-MEL-2 melanoma and in the experiment on MOLT-4 leukemia was over 100 µM in each case. Further, the TGI in the experiment on EKVX NSCLC, in the experiment with SW-620 colon and in the experiment on M14 melanoma was over 100 µM in each case.
Regarding `O=C1c2ccccc2C(=O)c2cc(N=Nc3c(O)ccc4ccccc34)ccc21`, the TGI in the experiment on ACHN renal, in the experiment with SK-OV-3 ovarian, with DU-145 prostate, with SN12C renal, with SR leukemia and in the experiment on NCI-H23 lung was over 100 µM throughout. The TGI in the experiment on OVCAR-8 ovarian, with NCI/ADR-RES ovarian, with UACC-257 melanoma, in the experiment with SNB-75 CNS, in the experiment on SK-MEL-2 melanoma and in the experiment with MOLT-4 leukemia was over 100 µM throughout. Further, the TGI in the experiment with EKVX NSCLC, in the experiment on SW-620 colon and with M14 melanoma was over 100 µM in each case.
As to `OC1(c2ccc(-c3ccccc3)cc2)c2ccccc2C2=NCCN21` (centres undefined), the TGI was 43.9 µM in the experiment on ACHN renal; over 100 µM with SK-OV-3 ovarian; over 100 µM in the experiment on DU-145 prostate; over 100 µM in the experiment on SN12C renal; over 100 µM with SR leukemia; 52.6 µM in the experiment on NCI-H23 lung. The TGI with NCI/ADR-RES ovarian was over 100 µM; in the experiment with UACC-257 melanoma, over 100 µM; in the experiment with SNB-75 CNS, 48.9 µM; in the experiment on SK-MEL-2 melanoma, 24.9 µM; in the experiment on MOLT-4 leukemia, over 100 µM; in the experiment on SW-620 colon, over 100 µM.
`O=C1c2cc(Cl)ccc2NC(=NC2CCCC2)C2CSCN12` (centres undefined): the TGI in the experiment with ACHN renal, in the experiment with SK-OV-3 ovarian, with DU-145 prostate, in the experiment with SN12C renal, with SR leukemia and in the experiment with OVCAR-8 ovarian was over 100 µM each time. The TGI in the experiment on NCI/ADR-RES ovarian, with UACC-257 melanoma, with SNB-75 CNS, in the experiment on SK-MEL-2 melanoma, in the experiment with MOLT-4 leukemia and with EKVX NSCLC was over 100 µM each time. Also, the TGI in the experiment with SW-620 colon and in the experiment with M14 melanoma was over 100 µM in each case.
Consider `C/C(=N\N=C(\N)SB(F)F)c1ccc2ccccc2c1`, for which the TGI with ACHN renal, in the experiment on SK-OV-3 ovarian, in the experiment on DU-145 prostate, in the experiment with SN12C renal, with SR leukemia and in the experiment with NCI-H23 lung was over 100 µM throughout. The TGI with OVCAR-8 ovarian, in the experiment with NCI/ADR-RES ovarian, in the experiment with SF-539 CNS, with UACC-257 melanoma, in the experiment with SNB-75 CNS and with SK-MEL-2 melanoma was over 100 µM throughout. Besides, the TGI in the experiment on EKVX NSCLC, in the experiment on SW-620 colon and in the experiment on M14 melanoma was over 100 µM throughout.
